Columns and labels:
HepG2 cells = assay: In vitro analysis of luciferase expression using LNP-mRNA systems; type: cell-based; details: LNP-mRNA (firefly luciferase) at 0.125, 0.25, 0.5 and 1 μg/mL, 24 hours post treatment, versus KC2 LNP
Procedure: To assess LNP-mRNA efficacy in vitro, HepG2 cells were seeded at 8,000 cells/well in 96-well plates and cultured in DMEM supplemented with 10% FBS. LNP systems entrapping luciferase mRNA were added at various concentrations and luciferase expression was analyzed 24 hours post-treatment using the Steady-Glo Luciferase kit (Promega, Madison, WI).
The in vitro gene expression efficacy of LNP systems entrapping mRNA encoding for firefly luciferase was assessed. HepG2 cells were treated at different doses (0.125, 0.25, 0.5 and 1 μg/mL) using the above LNP-mRNA systems. Luciferase expression was analyzed 24 hours post treatment. Ionizable cationic lipid used was either KC2 (DLin-KC2-DMA) or compound 13 (MF019; see Example 1). In each case, the RLU was higher for compound 13 (MF019) than for KC2.

Factor VII = assay: In vivo analysis of Factor VII (FVII) silencing using LNP-siRNA systems; details: 0.3 mg/kg LNP-siFVII intravenous, mice, 24 h, FIG. 6
Procedure: FVII knockdown study were performed as previously described.^3 In brief, LNP-siRNA were administered intravenously into WT mice (Charles River Laboratories, Wilmington, MA). Animals were euthanized after 24 h, blood was collected, serum was separated from whole blood using Microtainer Serum Separator tubes (Becton Dickinson, Franklin Lakes, NJ), and the residual serum FVII levels were determined. All procedures were approved by the Animal Care Committee at the University of British Columbia and were performed in accordance with guidelines established by the Canadian Council on Animal Care.
The graph depicts residual Factor VII following intravenous administration of various doses of the LNP-siFVII (see Materials and Methods above).

[1] = Physicochemical characteristics of LNPs comprising mRNA and sulfur lipid (dynamic light scattering, Ribogreen entrapment)
Procedure: (§1) LNP-mRNA systems were prepared as previously described (Kulkarni, J. A. et al. ACS Nano 12, 4787-4795 (2018); and Kulkarni, J. A. et al. Nanoscale 11, 9023-9031 (2019), each of which is incorporated herein by reference). Briefly, lipid components (ionizable cationic lipid, cholesterol, DSPC, and PEG-lipid) at appropriate ratios were dissolved in ethanol to a concentration of 10 mM total lipid. Luciferase encoding mRNA was dissolved in 25 mM sodium acetate pH 4 buffer to achieve an amine-to-phosphate (N/P) ratio of 6. The two solutions were mixed through a T-junction mixer at a total flow rate of 20 mL/min, and a flow rate ratio of 3:1 v/v (corresponding to 15:5 mL/min aqueous:organic phase). The resulting suspension was subsequently dialyzed against PBS pH 7.4. siRNAs were dissolved in 25 mM sodium acetate pH 4 buffer to achieve an amine-to-phosphate (N/P) ratio of 3. The two solutions were mixed through a T-junction mixer at a total flow rate of 20 mL/min, and a flow rate ratio of 3:1 v/v (corresponding to 15:5 mL/min aqueous:organic phase). The resulting suspension was subsequently dialyzed against PBS pH 7.4.
(§2) The hydrodynamic diameter and size distribution of LNP-mRNA and LNP-siRNA systems were analyzed by dynamic light scattering using a Malvern Zetasizer Nano ZS. Data presented as number-weighted average size. Lipid concentrations were measured using the Cholesterol E Total-Cholesterol assay (Wako Diagnostics, Richmond, VA). RNA concentration and entrapment were measured using the Quant-iT Ribogreen RNA assay as described elsewhere (Kulkarni, J. A. et al. ACS Nano 12, 4787-4795 (2018); and Kulkarni, J. A. et al. Nanoscale 11, 9023-9031 (2019)).
LNPs were prepared comprising ionizable cationic sulfur-containing lipid/DSPC/cholesterol/PEG-lipid at molar ratios of 50/10/38.5/1.5 and mRNA (at N/P ratio of 6) as described in the Materials and Methods. The size, PDI and entrapment percentage were determined as set out in the Materials and Methods and the results are shown in Table 2 below. The data are based on n≥3 experiments and values reported are means±SD. […]

[2] = Physicochemical characteristics of lipid nanoparticle (LNP) entrapping siRNA (dynamic light scattering, Ribogreen entrapment, apparent pKa); details: for Size: number-weighted average, mean of n≥3; for Entrapment: siRNA entrapment, LNP sulfur lipid/DSPC/cholesterol/PEG-lipid 50/10/38.5/1.5, N/P 3
Procedure: as §1, §2
LNPs were prepared composed of ionizable cationic sulfur-containing lipid/DSPC/cholesterol/PEG-lipid at molar ratios of 50/10/38.5/1.5 and siRNA (at N/P ratio of 3) as described in the above Methods and Materials. The data are based on n≥3 experiments and values reported are means±SD.
Compound 13 (MF019; see Example 1) produced siRNA formulations having desirable physicochemical characteristics as shown in Table 3 below. The polydispersity index (PDI) of the resulting nanoparticles was <0.1, with an average LNP size ˜45 nm.

[3] = LNP sulfur lipid/DSPC/cholesterol/PEG-lipid 50/10/38.5/1.5, siRNA, N/P 3

With CCCCCSCSCCCCCCCCC(CCCCCCCCSCSCCCCC)OC(=O)CCCN(C)C [compound 13, 6,8,26,28-tetrathiatritriacontan-17-yl 4-(dimethylamino)butanoate] the “Luciferase expression (RLU) compared with KC2” value (HepG2 cells) was “higher”, the “Factor VII knock down (residual serum FVII)” value (Factor VII) was “almost complete knock down” and the PDI ([1]; LNP sulfur lipid/DSPC/cholesterol/PEG-lipid 50/10/38.5/1.5, mRNA, N/P 6) was 0.054. The Size ([1]; LNP sulfur lipid/DSPC/cholesterol/PEG-lipid 50/10/38.5/1.5, mRNA, N/P 6, number-weighted average, mean of n≥3) was 79 nm, the Entrapment ([1]; mRNA entrapment, LNP sulfur lipid/DSPC/cholesterol/PEG-lipid 50/10/38.5/1.5, N/P 6) was >93% and the PDI [2, 3] was 0.028. The pKa [2, 3] was 6.41, the Size [2, 3] was 43 nm and the Size ([2]; LNP sulfur lipid/DSPC/cholesterol/PEG-lipid 50/10/38.5/1.5, siRNA, N/P 3, listed as Compound 13) was ~45 nm. For the same compound, the “polydispersity index (PDI)” value ([2]; LNP with siRNA, N/P 3) was < 0.1, the nucleic acid entrapment ([2]; formulated in a lipid nanoparticle, nucleic acid not specified) was “above 93%” and the Entrapment [2] was >93%. The Entrapment ([2]; listed as Compound 13) was > 93%.
